Assay results: ChEMBL document CHEMBL2069290, “Synthesis and biological evaluation of novel oxindole derivatives for imaging neurofibrillary tangles in Alzheimer's disease” (Bioorg Med Chem Lett, 2012)
Each block holds one molecule with its values, some of them ahead of it.

Assays:
Brain [1] = assay: Ratio of drug uptake in ddY mouse brain after 2 mins to drug uptake in ddY mouse brain after 30 mins; type: ADME, tissue-based; details: in vivo
[2] = target: Microtubule-associated protein tau (Homo sapiens, UniProt P10636); assay: Binding affinity to human Tau aggregates after 30 mins by Thioflavin-S-based fluorescence assay
[3] = target: Amyloid-beta precursor protein (Homo sapiens, UniProt P05067); assay: Binding affinity to amyloid beta(1 to 42) aggregates after 30 mins by Thioflavin-S-based fluorescence assay
Homo sapiens [4] = species: Homo sapiens; assay: Selectivity ratio of Ki for amyloid beta(1 to 42) to Ki for human Tau
Blood [5] = assay: Biodistribution in ddY mouse blood at 3.3 to 6.7 kBq, iv after 2 mins by gamma counting; type: ADME, organism-based; details: in vivo
Blood [6] = assay: Biodistribution in ddY mouse blood at 3.3 to 6.7 kBq, iv after 10 mins by gamma counting; type: ADME, organism-based; details: in vivo
Blood [7] = assay: Biodistribution in ddY mouse blood at 3.3 to 6.7 kBq, iv after 30 mins by gamma counting; type: ADME, organism-based; details: in vivo, 0.5 h
Blood [8] = assay: Biodistribution in ddY mouse blood at 3.3 to 6.7 kBq, iv after 60 mins by gamma counting; type: ADME, organism-based; details: in vivo, 1 h
Liver [9] = assay: Biodistribution in ddY mouse liver at 3.3 to 6.7 kBq, iv after 2 mins by gamma counting; type: ADME, organism-based; details: in vivo
Liver [10] = assay: Biodistribution in ddY mouse liver at 3.3 to 6.7 kBq, iv after 10 mins by gamma counting; type: ADME, organism-based; details: in vivo
Liver [11] = assay: Biodistribution in ddY mouse liver at 3.3 to 6.7 kBq, iv after 30 mins by gamma counting; type: ADME, organism-based; details: in vivo, 0.5 h
Liver [12] = assay: Biodistribution in ddY mouse liver at 3.3 to 6.7 kBq, iv after 60 mins by gamma counting; type: ADME, organism-based; details: in vivo, 1 h
Kidney [13] = assay: Biodistribution in ddY mouse kidney at 3.3 to 6.7 kBq, iv after 2 mins by gamma counting; type: ADME, organism-based; details: in vivo
Kidney [14] = assay: Biodistribution in ddY mouse kidney at 3.3 to 6.7 kBq, iv after 10 mins by gamma counting; type: ADME, organism-based; details: in vivo
Kidney [15] = assay: Biodistribution in ddY mouse kidney at 3.3 to 6.7 kBq, iv after 30 mins by gamma counting; type: ADME, organism-based; details: in vivo, 0.5 h
Kidney [16] = assay: Biodistribution in ddY mouse kidney at 3.3 to 6.7 kBq, iv after 60 mins by gamma counting; type: ADME, organism-based; details: in vivo, 1 h
Intestine [17] = assay: Biodistribution in ddY mouse intestine at 3.3 to 6.7 kBq, iv after 2 mins by gamma counting; type: ADME, organism-based; details: in vivo
Intestine [18] = assay: Biodistribution in ddY mouse intestine at 3.3 to 6.7 kBq, iv after 10 mins by gamma counting; type: ADME, organism-based; details: in vivo
Intestine [19] = assay: Biodistribution in ddY mouse intestine at 3.3 to 6.7 kBq, iv after 30 mins by gamma counting; type: ADME, organism-based; details: in vivo, 0.5 h
Intestine [20] = assay: Biodistribution in ddY mouse intestine at 3.3 to 6.7 kBq, iv after 60 mins by gamma counting; type: ADME, organism-based; details: in vivo, 1 h
Spleen [21] = assay: Biodistribution in ddY mouse spleen at 3.3 to 6.7 kBq, iv after 2 mins by gamma counting; type: ADME, organism-based; details: in vivo
Spleen [22] = assay: Biodistribution in ddY mouse spleen at 3.3 to 6.7 kBq, iv after 10 mins by gamma counting; type: ADME, organism-based; details: in vivo
Spleen [23] = assay: Biodistribution in ddY mouse spleen at 3.3 to 6.7 kBq, iv after 30 mins by gamma counting; type: ADME, organism-based; details: in vivo, 0.5 h
Spleen [24] = assay: Biodistribution in ddY mouse spleen at 3.3 to 6.7 kBq, iv after 60 mins by gamma counting; type: ADME, organism-based; details: in vivo, 1 h
Pancreas [25] = assay: Biodistribution in ddY mouse pancreas at 3.3 to 6.7 kBq, iv after 2 mins by gamma counting; type: ADME, organism-based; details: in vivo
Pancreas [26] = assay: Biodistribution in ddY mouse pancreas at 3.3 to 6.7 kBq, iv after 10 mins by gamma counting; type: ADME, organism-based; details: in vivo
Pancreas [27] = assay: Biodistribution in ddY mouse pancreas at 3.3 to 6.7 kBq, iv after 30 mins by gamma counting; type: ADME, organism-based; details: in vivo, 0.5 h
Pancreas [28] = assay: Biodistribution in ddY mouse pancreas at 3.3 to 6.7 kBq, iv after 60 mins by gamma counting; type: ADME, organism-based; details: in vivo, 1 h
Heart [29] = assay: Biodistribution in ddY mouse heart at 3.3 to 6.7 kBq, iv after 2 mins by gamma counting; type: ADME, organism-based; details: in vivo
Heart [30] = assay: Biodistribution in ddY mouse heart at 3.3 to 6.7 kBq, iv after 10 mins by gamma counting; type: ADME, organism-based; details: in vivo
Heart [31] = assay: Biodistribution in ddY mouse heart at 3.3 to 6.7 kBq, iv after 30 mins by gamma counting; type: ADME, organism-based; details: in vivo, 0.5 h
Heart [32] = assay: Biodistribution in ddY mouse heart at 3.3 to 6.7 kBq, iv after 60 mins by gamma counting; type: ADME, organism-based; details: in vivo, 1 h
Stomach [33] = assay: Biodistribution in ddY mouse stomach assessed per organ at 3.3 to 6.7 kBq, iv after 2 mins by gamma counting; type: ADME, organism-based; details: in vivo
Stomach [34] = assay: Biodistribution in ddY mouse stomach assessed per organ at 3.3 to 6.7 kBq, iv after 10 mins by gamma counting; type: ADME, organism-based; details: in vivo
Stomach [35] = assay: Biodistribution in ddY mouse stomach assessed per organ at 3.3 to 6.7 kBq, iv after 30 mins by gamma counting; type: ADME, organism-based; details: in vivo, 0.5 h
Stomach [36] = assay: Biodistribution in ddY mouse stomach assessed per organ at 3.3 to 6.7 kBq, iv after 60 mins by gamma counting; type: ADME, organism-based; details: in vivo, 1 h
Brain [37] = assay: Biodistribution in ddY mouse brain at 3.3 to 6.7 kBq, iv after 2 mins by gamma counting; type: ADME, organism-based; details: in vivo
Brain [38] = assay: Biodistribution in ddY mouse brain at 3.3 to 6.7 kBq, iv after 10 mins by gamma counting; type: ADME, organism-based; details: in vivo
Brain [39] = assay: Biodistribution in ddY mouse brain at 3.3 to 6.7 kBq, iv after 30 mins by gamma counting; type: ADME, organism-based; details: in vivo, 0.5 h
Brain [40] = assay: Biodistribution in ddY mouse brain at 3.3 to 6.7 kBq, iv after 60 mins by gamma counting; type: ADME, organism-based; details: in vivo, 1 h
Homo sapiens [41] = species: Homo sapiens; assay: Selectivity ratio of Kd for amyloid beta(1 to 42) to Kd for human Tau

Amyloid-beta precursor protein, sequence (P05067 whole entry): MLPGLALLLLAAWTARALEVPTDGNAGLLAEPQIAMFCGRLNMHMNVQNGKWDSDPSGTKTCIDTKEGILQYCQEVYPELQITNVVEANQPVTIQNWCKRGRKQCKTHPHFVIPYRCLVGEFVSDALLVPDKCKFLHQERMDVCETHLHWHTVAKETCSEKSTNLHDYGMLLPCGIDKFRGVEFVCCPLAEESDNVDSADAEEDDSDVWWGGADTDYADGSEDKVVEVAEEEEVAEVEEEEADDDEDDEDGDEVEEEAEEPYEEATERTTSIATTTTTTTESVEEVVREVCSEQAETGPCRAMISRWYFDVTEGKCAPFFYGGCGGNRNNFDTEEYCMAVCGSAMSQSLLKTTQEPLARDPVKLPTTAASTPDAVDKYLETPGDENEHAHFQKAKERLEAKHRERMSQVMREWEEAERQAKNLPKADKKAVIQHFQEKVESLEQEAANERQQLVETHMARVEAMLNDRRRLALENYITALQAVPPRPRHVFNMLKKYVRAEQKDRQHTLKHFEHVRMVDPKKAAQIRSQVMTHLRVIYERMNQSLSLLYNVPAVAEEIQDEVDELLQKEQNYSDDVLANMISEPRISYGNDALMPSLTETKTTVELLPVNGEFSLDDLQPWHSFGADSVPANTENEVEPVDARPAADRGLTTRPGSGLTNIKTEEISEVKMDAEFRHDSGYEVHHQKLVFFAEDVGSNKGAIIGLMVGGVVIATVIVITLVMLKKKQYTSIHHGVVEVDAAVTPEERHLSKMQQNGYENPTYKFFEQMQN
Microtubule-associated protein tau, sequence (P10636 whole entry): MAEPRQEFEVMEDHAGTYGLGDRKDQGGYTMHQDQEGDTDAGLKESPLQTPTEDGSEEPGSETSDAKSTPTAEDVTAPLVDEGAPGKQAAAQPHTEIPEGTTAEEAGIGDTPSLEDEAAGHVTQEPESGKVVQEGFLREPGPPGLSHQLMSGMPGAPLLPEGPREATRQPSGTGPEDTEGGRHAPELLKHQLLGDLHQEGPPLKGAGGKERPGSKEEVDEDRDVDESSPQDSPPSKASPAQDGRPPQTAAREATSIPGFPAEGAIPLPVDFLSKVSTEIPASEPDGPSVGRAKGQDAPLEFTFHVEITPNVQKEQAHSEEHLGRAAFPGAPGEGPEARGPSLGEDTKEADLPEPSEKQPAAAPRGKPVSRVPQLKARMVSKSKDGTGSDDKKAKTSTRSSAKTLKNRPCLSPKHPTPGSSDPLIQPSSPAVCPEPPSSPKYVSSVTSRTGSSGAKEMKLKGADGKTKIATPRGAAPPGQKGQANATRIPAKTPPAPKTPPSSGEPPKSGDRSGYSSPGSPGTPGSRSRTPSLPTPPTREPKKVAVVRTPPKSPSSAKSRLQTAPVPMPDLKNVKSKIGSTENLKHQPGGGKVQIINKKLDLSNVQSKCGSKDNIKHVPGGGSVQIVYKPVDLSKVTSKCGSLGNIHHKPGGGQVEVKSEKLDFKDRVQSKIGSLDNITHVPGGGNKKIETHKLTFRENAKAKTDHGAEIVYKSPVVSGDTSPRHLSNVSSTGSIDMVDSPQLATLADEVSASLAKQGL

SMILES: O=C1/C(=C/c2ccc(-c3cccc([125I])c3)o2)NC(=S)N1CCc1c[nH]cn1
Ratio (Brain [1]): 2.33

SMILES: CN(C)c1ccc(/N=N/c2nc3ccc(OCCOCCOCCF)cc3s2)cc1
Ratio (Homo sapiens [41]): 1.54

SMILES: [11CH3]Nc1ccc(-c2ccc3ccccc3n2)cc1
Ratio (Brain [1]): 3.65

Other lines, results leading:

Ki [2]: 599 nM
Ki [3]: 4670 nM
Ratio Ki (Homo sapiens [4]): 7.8
SMILES: CN(C)c1ccc(C=C2C(=O)Nc3ccc(I)cc32)cc1

Ki [2]: 1430 nM
Ki [3]: 5060 nM
Ratio Ki (Homo sapiens [4]): 3.54
SMILES: CNc1ccc(C=C2C(=O)Nc3ccc(I)cc32)cc1

Drug uptake (Blood [5]): 4.7 % ID/g
Drug uptake (Blood [6]): 3.76 % ID/g
Drug uptake (Blood [7]): 2.06 % ID/g
Drug uptake (Blood [8]): 2.23 % ID/g
Drug uptake (Liver [9]): 9.81 % ID/g
Drug uptake (Liver [10]): 11.29 % ID/g
Drug uptake (Liver [11]): 9.85 % ID/g
Drug uptake (Liver [12]): 8.9 % ID/g
Drug uptake (Kidney [13]): 11.93 % ID/g
Drug uptake (Kidney [14]): 16.57 % ID/g
Drug uptake (Kidney [15]): 11.38 % ID/g
Drug uptake (Kidney [16]): 7.55 % ID/g
Drug uptake (Intestine [17]): 2.13 % ID/g
Drug uptake (Intestine [18]): 3.17 % ID/g
Drug uptake (Intestine [19]): 7.05 % ID/g
Drug uptake (Intestine [20]): 10.7 % ID/g
Drug uptake (Spleen [21]): 3.2 % ID/g
Drug uptake (Spleen [22]): 4.46 % ID/g
Drug uptake (Spleen [23]): 4.08 % ID/g
Drug uptake (Spleen [24]): 2.17 % ID/g
Drug uptake (Pancreas [25]): 4.4 % ID/g
Drug uptake (Pancreas [26]): 2.54 % ID/g
Drug uptake (Pancreas [27]): 1.39 % ID/g
Drug uptake (Pancreas [28]): 0.94 % ID/g
Drug uptake (Heart [29]): 7.94 % ID/g
Drug uptake (Heart [30]): 3.42 % ID/g
Drug uptake (Heart [31]): 2.23 % ID/g
Drug uptake (Heart [32]): 2.11 % ID/g
Drug uptake (Stomach [33]): 0.96 %ID
Drug uptake (Stomach [34]): 1.67 %ID
Drug uptake (Stomach [35]): 2.1 %ID
Drug uptake (Stomach [36]): 3.8 %ID
Drug uptake (Brain [37]): 2.52 % ID/g
Drug uptake (Brain [38]): 1.4 % ID/g
Drug uptake (Brain [39]): 0.63 % ID/g
Drug uptake (Brain [40]): 0.36 % ID/g
Ratio (Brain [1]): 4
SMILES: CN(C)c1ccc(/C=C2\Nc3ccc([125I])cc3C2=O)cc1

Ki [2]: 112 nM
Ki [3]: 116 nM
Ratio Ki (Homo sapiens [4]): 1.03
SMILES: CNc1ccc(/C=C2\Nc3ccc(I)cc3C2=O)cc1
